The assay addresses T1, Src kinase (Homo sapiens, UniProt P12931).
T1 construct: purchased Upstate Bioteolnology (sic; Upstate Biotechnology); later HMR stock 27597-019E1 #14-117
The experiment in a line: Phosphorylation assay of Src kinase inhibitors (radiometric, 96 well filter plate). Type of assay: biochemical. The following applies: duplicates, tested in the range of 400-0.098 µM; 10 µM peptide substrate (FIYGAFKKKKNH2), 5 µM unlabeled ATP, room temperature 30 min; read-out: IC50. As for the experimental part: The present invention provides novel compounds of Formulae I through XVIII discussed above. The following compounds which fall within Formulae I through XVIII are characterized by structure, IUPAC name and activity using phosphorylation assay for protein tyrosine Src kinase.
Phosphorylation Assay of Src Kinase Inhibitors
The activity of Src kinase was measured in a 96 well plate phosphorylation assay where the transfer of gamma phosphate from ATP to peptide substrate was measured radiometrically. […] Ki values were determined experimentally for some of the inhibitors. The phosphocellulose filter plates (Millipore catalog #MAPH NOB) were prewet prior to the phosphorylation assay by addition of 100 1 per well of 30 mM MES buffer+0.4 mg/ml BSA. After a 20-minute incubation, the buffer was removed completely via a Millipore vacuum manifold. The phosphorylation assay was then set up in the filter plates in a total volume per well of 60 1. The 60 1 consisted of compound (see concentration ranges above), a 1:100 dilution of Src kinase (originally Upstate Bioteolnology, #14-117; later HMR stock 27597-019E1) or assay buffer alone (for no enzyme control wells), 10 M peptide substrate (FIYGAFKKKKNH2), 5 M unlabeled ATP and a 1:500 dilution of P-ATP (New England Nuclear, catalog #NEG-602H, 2000 Ci/mmol). The reaction was mixed and incubated at room temperature for 30 min. The kinase reactions were stopped by addition of 150 mM H3PO4 and incubated for 10 minutes. The filter plate wells were filtered and washed seven times with 200 1 per well of 150 mM H3PO4. Finally, the filter plate was placed into a Packard plate adapter (Packard catalog #600517B), 35 1 of Microscint-20 (Packard catalog #6013621) was added to each well, the plate was sealed (TopSeal A sealers; Packard catalog #6005185) and counted on a Packard TopCount.
T1 sequence (P12931 whole entry): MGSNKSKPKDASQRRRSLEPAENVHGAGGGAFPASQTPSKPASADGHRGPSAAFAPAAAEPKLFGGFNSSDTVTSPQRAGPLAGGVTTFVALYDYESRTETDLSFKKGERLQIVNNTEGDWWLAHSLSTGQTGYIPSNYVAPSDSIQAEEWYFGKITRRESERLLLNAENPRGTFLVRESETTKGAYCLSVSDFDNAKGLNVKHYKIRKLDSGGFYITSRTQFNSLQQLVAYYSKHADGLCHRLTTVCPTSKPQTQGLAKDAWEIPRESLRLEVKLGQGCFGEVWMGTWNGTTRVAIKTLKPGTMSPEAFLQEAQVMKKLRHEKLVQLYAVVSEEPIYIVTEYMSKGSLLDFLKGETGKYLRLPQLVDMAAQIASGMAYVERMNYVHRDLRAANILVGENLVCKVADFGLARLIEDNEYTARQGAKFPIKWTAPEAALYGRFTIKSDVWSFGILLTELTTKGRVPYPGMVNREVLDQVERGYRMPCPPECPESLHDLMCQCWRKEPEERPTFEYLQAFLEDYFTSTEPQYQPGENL
As for `NC(=O)CNC(=O)c1cc2ccccc2cc1OCCCCNC(=O)[C@H](Cc1ccc(O)cc1)NC=O` [Example 72, 3-[4-[[[1-OXO-2-(N-FORMYLAMINO)-3- (4-HYDROXYPHENYL)]PROPYL]- (S)AMINO]BUTOXY]-NAPHTHALENE- 2-(N-ACETAMIDO)CARBOXAMIDE], the IC50 stood at 6 µM.

Take `NC(=O)CNC(=O)c1cc2ccccc2cc1OCCCCNC(=O)C1NCCC1c1ccc(O)cc1` [Example 22, 3-[N-[[[(3-(S)4-HYDROXYPHENYL)- TETRAHYDROPYRROL-2-YL]- CARBONYL]AMINO]BUTOXY]- NAPHTHALENE-2-[N-(2- AMIDOMETHYL)]CARBOXAMIDE]: the IC50 was found to be 11 µM.

On to `CNC(=O)[C@@H](Cc1ccc(C(=O)OC)cc1)C(=O)NCCCCOc1cc2ccccc2cc1C(=O)NCC(N)=O` [Example 147, 3-[[4-[N-[1-OXO-2-(N-METHYLAMINO- CARBONYL)-3-[(4-(METHOXY- CARBONYL)PHENYL]]PROPYL]- AMINO]BUTOXY]-NAPHTHALENE-2- (N-ACETAMIDO)CARBOXAMIDE], for which the IC50 turned out to be 18 µM.

In the case of `CCNC(=O)CNC(=O)c1cc2ccccc2cc1OCCCCN(C)C(=O)C(N)Cc1csc2ccccc12` (centres unmarked) [Example 154, 3-[[[4-[3-(BENZOTHIOPHEN-3-YL)-2- AMINO-1-OXO]PROPYL](N-METHYL)- AMINO]BUTOXY]-NAPHTHALENE-2- [(N-(N-ETHYL)ACETAMIDO]- CARBOXAMIDE], the IC50 is 4 µM.

On to `NC(=O)C(CCC(=O)O)NC(=O)c1cc2ccccc2cc1OCCCCNC(=O)[C@@H](N)Cc1ccc(O)cc1` (stereo partly drawn) [Example 12, 3-[4-[[2(S)-AMINO-3-(4-HYDROXY- PHENYL)-1-OXOPROPYL]AMINO]- BUTOXY]-NAPHTHALENE-2-[N- [(AMIDO)(2-CARBOXYEHTYL)- METHYL]]CARBOXAMIDE], for which the IC50 amounted to 308 µM.

In the case of `NC(=O)CNC(=O)c1cc2ccccc2cc1OCCCCNC(=O)C(=C/c1ccc(O)cc1)/C(N)=N/O` [Example 150, 3-[[4-[N-[1-OXO-2-[(HYDROXYIMINO)- (AMINO)METHYL]-3-(4-HYDROXY- PHENYL)]]PROP-2-ENYL]AMINO]- BUTOXY]-NAPHTHALENE-2-(N- ACETAMIDO)CARBOXAMIDE], the IC50 worked out at 16 µM.

With `NC(=O)CNC(=O)c1cc2ccccc2cc1C(=O)NCCCNC(=O)[C@@H](N)Cc1ccc(O)cc1` [Example 89, 3-[[[3-[[[1-OXO-2(S)-AMINO-3- HYDROXYPHENYL)]PROPYL]AMINO]- PROPYL]AMINO]CARBONYL]- NAPHTHALENE-2-ACETAMIDO)- CARBOXAMID], the IC50 was found to be 252 µM.

On to `NC(=O)CNC(=O)c1cc2ccccc2cc1OCCCCNC(=O)[C@@H](N)Cc1cccc(F)c1` [Example 59, 3-[4-[[[2(S)-AMINO-3-(3-FLUORO- PHENYL)-1-OXO]PROPYL]AMINO]- BUTOXY]-NAPHTHALENE-2-(N- ACETAMIDO)CARBOXAMIDE], for which the IC50 was found to be 0.49 µM.

Take `NC(=O)CNC(=O)c1cc2ccccc2cc1OCCCCNC(=O)[C@@H](N)Cc1ccc(-c2ccccc2)cc1` [Example 38, 3-[[4-[[2(S)-AMINO-3-(BIPHEN-1-YL)-1- OXO]PROPYL]AMINO]BUTOXY]- NAPHTHALENE-2-(N- ACETAMIDO)CARBOXAMIDE]: the IC50 came to 30 µM.

As to `NC(=O)CNC(=O)c1cc2ccccc2cc1OCCCCNC(=O)[C@@H](N)Cc1ccc([N+](=O)[O-])cc1` [Example 45, 3-[[4-[[2(S)-AMINO-3(4-NITROPHENYL)- 1-OXO]PROPYL]AMINO]BUTOXY]- NAPHTHALENE-2-(N-ACETAMIDO)- CARBOXAMIDE], the IC50 came to 1.47 µM.

`N[C@@H](Cc1ccc(O)cc1)C(=O)NCCCCOc1cc2ccccc2cc1C(=O)NCC(=O)NCCCO` [Example 99, 3-[[4-[[1-OXO-2(S)-AMINO-3-(4- HYDROXYPHENYL)]PROPYL]AMINO]- BUTOXY]NAPHTHALENE-2-[N-[[[[3- HYDROXYPROPYL]AMINO]- CARBONYL]METHYL]]CARBOXAMIDE]: the IC50 came to 0.49 µM.

The IC50 is the concentration at which inhibition is half-maximal.

The record behind these values is US20040014676A1, “SRC kinase inhibitors useful for treating osteoporosis” (priority 2001, published 2004).
